From patent publication US5874086A, “Synthesis and use for the treatment of osteoporosis” (Syntex (U.S.A,), Inc., priority 1994, dated 1999)
Where no end group is shown, it is not given here. [ ]: non-standard residue; d: D form. The star is where a group is joined. hSer(lactone) = O=C1OCC[C@@H]1N*

B1: bPTH(1-84): bovine parathyroid hormone, single polypeptide chain of 84 amino acid residues (protein, UniProt P01268 32-115, looked up)
Parathyroid hormone: AVSEIQFMHNLGKHLSSMERVEWLRKKLQDVHNFVALGASIAYRDGSSQRPRKKEDNVLVESHQKSLGEADKADVDVLIKAKPQ
modifications: Parathyroid hormone
notes: bovine parathyroid hormone, single polypeptide chain of 84 amino acid residues

Experiments:
ovariectomized rats = assay: Effect on bone mass (bone calcium) in ovariectomized rats; assay type: in vivo, Sprague-Dawley female rats
Method: Bone Dis. 5:177 181 (1984).
Adult Sprague-Dawley female rats were acclimatized, weight grouped (n=9, 10 or 12), and subjected to bilateral ovariectomy (OVX) or sham surgery. Dosing was initiated 17 days after surgery and continued for 20 days. Test compound was administered subcutaneously once a day in 2% rat serum/saline vehicle.
After 20 days of dosing, the rats were sacrificed and the right femurs excised. The femurs were cut in half and the distal half femurs (DHF) were further separated into trabecular bone (TB) and cortical bone (CB) by drilling out the trabeculae. Calcium was extracted and measured by Calcette calcium analyzer and expressed as mean bone Ca in mg/DHF/100 g body weight.
The two sample t-test was used to compare OVX and sham groups. One-way ANOVA was used to compare OVX groups, followed by Fisher's LSD multiple comparison to compare each treatment group to vehicle.

healthy adult male rats = settings: daily subcutaneous injections for 12 days; cited from earlier work
[1] = tested on: ovariectomized adult female rats; settings: daily subcutaneous injections; cited from earlier work
[2] = tested on: normal and osteoporotic adult female rats; settings: daily subcutaneous doses; cited from earlier work
[3] = 80 μg/kg/day subcutaneously once a day, 20 days of dosing

Row | Molecule | Total Bone Calcium (% increase over OVX) (ovariectomized rats; 40 ug/kg/day, 5 d of dosing) | Total Bone Calcium (% increase over OVX) (ovariectomized rats; 40 ug/kg/day, 10 d of dosing) | Total Bone Calcium (% increase over OVX) (ovariectomized rats; [3]) | Whole body calcium and ash weight of individual bones [2] | also measured
1 | AVSEHQLLHDKGKSIQDLRRRELLEKLLEKLHTX (AVSEHQLLHDKGKSIQDLRRRELLEKLLEKLHT[hSer(lactone)]) [Compound 4, X = hSerlac; homoserine lactone peptide] | 55% | 79% | 88-114% | – | Total Bone Calcium (% increase over OVX) (ovariectomized rats; 40 ug/kg/day, 20 d of dosing): 79-105%
2 | AVSEHQLLHDKGKSIQDLRRRELLEKLLEKLHTX [Compound 49] | – | 93% | – | – | –
3 | AVSEHQLLHDKGKSIQDLRRRELLEKLLEKLHTA-OH [Compound 2] | – | – | 66-114% | – | Trabecular Bone Calcium (% increase over OVX) (ovariectomized rats; [3]): 87-102%
4 | hPTH(1-34): N-terminal (1-34) fragment of human parathyroid hormone (SVSEIQLMHNLGKHLNSMERVEWLRKKLQDVHNF; Parathyroid hormone; UniProt P01270 32-65, looked up, fragment) | – | – | – | increased | Trabecular and cortical bone calcium and dry weight (healthy adult male rats): increased; Loss of trabecular bone after ovariectomy [1]: completely reversed the loss of trabecular bone
5 | AVSEHQLLHDKGKSIQDLRRRELLEKLLEKLP-NH2 (AVSEHQLLHDKGKSIQDLRRRELLEKLLEKLP-NH2) [Compound 42] | 60% | – | – | – | –
6 | B1 | – | – | – | increased | –
